Consider 3 compounds from US20240423944A1, “USE OF LAURYL GALLATE (LG) AS A HEMOSTATIC AGENT” (CENTRE DE BIOTECHNOLOGIE DE SFAX (CBS), priority 2021, published 2024).

Data set [1] has as its system washed human platelets. Description: Washed platelet aggregation by turbidimetry (light transmission aggregometer). Type of data set: cell-based. The protocol: Healthy volunteers had abstained from Aspirin and others anti-inflammatory drugs for at least […] prior to blood sampling. Written informed consent was obtained from all donors. Blood samples were collected into sodium citrate 3.2% and centrifuged for 10 min at 190 g. The supernatant thus obtained was the platelet-rich plasma (PRP).
Washed platelets were prepared from centrifuged PRP previously supplemented with rostacyclin (0.5 μM) to avoid platelet activation. The pellet was suspended in buffer A (pH 6.8) containing 140 mM NaCl, 5 mM KCl, 5 mM KH2PO4, 1 mM MgSO4, 10 mM N-2-hydroxyethylpiperazine-N′-2-ethanesulfonic acid, 5 mM glucose and 0.35% bovine serum albumin (w/v). The same buffer containing 1 mM CaCl2 and apyrase but without BSA (adjusted to pH 7.4) was added to the final suspension to reach 2×10^8 platelets/ml.
Different concentrations of LG were added to 270 μl of PRP or washed platelets from an initial concentration of 250 mM. Platelet aggregation was recorded using a light transmission aggregometer (SD Medical). The percentage of transmittance of PRP or washed platelets was recorded as 0%, and that of the appropriate PPP or buffer was recorded as 100% respectively. Each condition was repeated for many healthy volunteers. Platelets treated with DMSO serves as negative control. Potentiation between low doses of LG and collagen or TRAP to aggregate platelets was also determined.

For the next data set, the system named is CD63. The data set can be described thus: Flow cytometry of dense granule secretion marker CD63. The format is cell-based, human. To be noted: following addition of LG. The protocol: (§1) Washed platelets were pre-incubated with LG or DMSO for 5 and 10 min at 37° C. Samples were then incubated for 15 min at room temperature in the dark with anti-CD62P, anti-CD63 or monoclonal antibody PAC-1. This last recognize and binds only to the active form of integrin αIIbβ3 complex. Analysis of respective protein was performed using a FACS-Verse cytometer BD Biosciences). Platelets were identified on the basis of their Forward Scatter and Side Scatter properties.
On the technique in general: A flow cytometer gives signals particle by particle.

The next data set relates to CD62-P (P-selectin). Description: Flow cytometry of α-granule secretion marker CD62-P. The format is cell-based, human. As to the method:
as §1

In data set [2] the test system is washed platelets from healthy donors. Description: Scanning electron microscopy of platelets. The format is cell-based, human. To be noted: 10 min, non-shaking. The protocol: Platelets are treated with TRAP 25 μM, LG (LC and HC) during 10 minutes. They were fixed in 2.5% glutaraldehyde in 0.1 M Sorensen phosphate buffer (pH 7.4) for at least 1 h at 37° C. After sedimentation, the pellets were re-suspended in water and made to adhere on poly-lysine coated glass coverslips. Platelets were then dehydrated in a graded ethanol series and dried by critical point drying with a Leica EM CPD 300. The samples were coated with 6 nm Platinium on a Leica EM Med 020 before being examined on a FEI Quanta 250 FEG scanning electron microscope, at an accelerating voltage of 5 kV (Valet 2021).

The subject of another data set is phosphatidylserine (PS). The data set can be described thus: Phosphatidylserine exposure by annexin V binding (flow cytometry). To be noted: LG 0.05 mM. The format is cell-based, human. As to the method: For phosphatidylserine exposure, washed platelets were pre-incubated with LG 0.05 mM or DMSO for 5 min at 37° C. Dilute the activated or non-activated sample with the 1× binding buffer provided in the kit to a final volume of 100 μl and add 5 μl of Annexin V AF647 (Clinisciences) for 15 min at 37° C. in the dark. The binding reaction is stopped with 500 ill of 1× binding buffer (Ramstrom 2010). Analysis was performed using LSR Fortessa cytometer (BD Biosciences).

The test system of another data set is p38 MAPK. Description: Western blotting of p38 MAPK phosphorylation (Thr180/Tyr182). The format is cell-based, human. As to the method: (§2) Washed platelets were treated with LG (LC and HC) or DMSO. Aliquots were taken at 0, 2.5, 5 and 10 min, lysed with sample buffer and boiled. Proteins were loaded on to sodium dodecyl sulfate 10% polyacrylamide gel and, after electrophoresis, transferred to a nitrocellulose membrane. […] Phospho antibodies were diluted in TBS-Tween 5%-BSA (w/v) and incubated overnight and the others for 2 h. After washing, each blot was incubated with the corresponding horseradish peroxidase-conjugated anti-mouse or anti-rabbit. Immunoblots were developed using Super signal chemiluminescent substrate (Pierce, Rockford, IL) and analyzed with chemidoc Imaging system (Biorad).
Background: A western blot detects proteins with antibodies after separation by electrophoresis.

The next data set has as its system Src kinases. Description: Western blotting of Src kinase cleavage. The format is cell-based, human. The protocol:
as §2

In the next data set the test system is tumoral cell lines. To be noted: Ortega et al, 2003; cited from earlier work.
In the next data set the test system is αIIbβ3 integrin. Description: Flow cytometry of αIIbβ3 activation with PAC-1 antibody. Type of data set: cell-based, human. As to the method:
as §1

Another data set concerns fungi. To be noted: Kubo et al, 2003; cited from earlier work.
For data set [3], the system named is washed platelets from healthy donors. Description: Measurement of LDH leakage from washed platelets. The format is cell-based, human. To be noted: low doses of LG 0.1 mM), 10 min. The protocol:
Washed platelets from healthy donors were treated with different doses of LG or control (DMSO) for 10 minutes at 37° C. Following, platelets were pelleted by centrifugation at 1800×g for 3 min. Supernatants were used to detect Lactate dehydrogenase (LDH) release by colorimetric method (Thermo Fisher Scientific), according to the manufacturer's protocol. The assay was performed in endpoint time of increased of formazan absorbance at 680 nm for 30 min. Maximal LDH leakage was obtained with lysis buffer. Results, expressed as percentage of LDH leakage are mean±SEM (n=6) (** p<0.01, *** p<0.001 according to Kruskal-Wallis test).
Background: LDH leaks from cells whose membrane has failed.

The test system of a further data set is animal viruses. To be noted: Hurtado et al, 2008; cited from earlier work.
For the next data set, the system named is Wistar rats. The data set can be described thus: Rat tail bleeding time. The format is in vivo. The protocol:
Wistar rats of either gender weighing between 200 and 250 g were purchased from the Central Pharmacy of Tunisia. Animal handling conforms to the European Convention (CE. no. 123). Animals were fed a standard chow diet and had free access to water. They were housed five rats in a cage (0.12 m^2). Bleeding time was measured by transection of the tail, 1 cm from the tip, of phenobarbital anesthetized rats (25 mg/kg. i.p). Immediately after transection, the tail was dipped for 5 seconds into LG solution (5, 50, or 100 mg/ml of LG dissolved in ethanol) or vehicle (ethanol) and then placed carefully on Whatman paper. Blood was allowed to drop on filter paper which was moved gently every 30 seconds until no more blood was dropped. […] The bleeding time was also determined for a lot of rats not treated with any solution (control) and for another treated with ethanol to test the effect of the solvent. Tranexamic acid (100 mg/ml) was used as a standard anti-hemorrhagic drug under the same conditions. Each condition was repeated for six rats.

For the next data set, the system named is human whole blood. Description: Thrombus formation on immobilized collagen under flow conditions. Type of data set: cell-based. To be noted: LG 0.05 mM. As to the method:
This method was performed as previously described (Gratacap et al, 2009). Briefly, biochips with micro-capillaries (Vena8Fluoro+®, Cellix) were coated with collagen type I. Epi-fluorescence microscope (Axio Observer; Carl Zeiss) allowed direct visualization of platelet adhesion and aggregation which was recorded with ORCA-R2 camera (Hamamatsu). Whole blood was collected into 13.6 UI/m1 lithium heparinate and platelets were labeled with DIOC6(Life Technologies, 2 μM, 10 min at 37° C.) LG (0.05 mM) was then added to blood just prior to injection through a micro-capillary at shear rate of 1500 s^−1. Thrombus formation was visualized with a 40× long working distance objective in real time. The range was fixed to 80 μm and the interval to 1.5 μm. The acquisition rate was chosen at one frame every 30 sec divided into two positions. Quantification of surface coverage was performed off-line using ImageJ software.

Data set [4] has as its system Gram-positive bacteria like Bacillus subtilis or Streptococcus mutans. To be noted: cited from earlier work.
In data set [5] the test system is washed human platelets. Description: Calcium mobilization with CalciFluor 8-AM and flow cytometry. The format is cell-based. As to the method:
Platelet calcium flux was adapted from the work described by (Monteiro et al. 1999). Washed platelets re-suspended at 10^8/ml in platelet wash buffer were incubated with the calcium indicator dyes Calcifluor 8-AM (R&D system) at 5 μM and Pluronic F-127 0.02% v/v (Sigma Aldrich) for 30 min at 37° C. The platelets were washed twice with platelet wash buffer, re-suspended in Tyrode's buffer containing EGTA (1 mM) or BAPTA-AM (10 μM). Changes in cytosolic calcium concentration were associated with increased or decreased fluorescence emission of Calcifluor 8-AM (emission wavelengths of 500-570 nm). These changes were analyzed using flow cytometry BD LSRII Fortessa. Results were expressed in fold increased Median Fluorescence. The determination of internal calcium concentration in platelet was described by Grynkiewicz et al. (1985).

A further data set has as its system Akt. The data set can be described thus: Western blotting of Akt phosphorylation (Ser473). The format is cell-based, human. The protocol: as §2
The test system of the next data set is platelets. To be noted: Hongyan and Richard, 2004; cited from earlier work.

Regarding collagen [reference compound], the “platelet aggregation by agonist alone” value with washed human platelets [1] (collagen 0.15 μg/ml alone) is “unable to trigger detectable platelet aggregation”.

On to `CCCCCCCCCCCCOC(=O)c1cc(O)c(O)c(O)c1` [LG, Dodecyl 3,4,5-trihydroxybenzoate], for which, in the data set on CD63, the “plasma membrane expression level of CD63” value is on record as “significantly increased”. Also, the “expression of CD62-P on the plasma membrane” value with CD62-P (P-selectin) (LG 0.05 mM) and with CD62-P (P-selectin) (LG 0.75 mM) was “markedly increased” each time. Further, the “α-granule secretion intensity compared with 50 μM TRAP” value in the data set on CD62-P (P-selectin) (versus 50 μM TRAP) was “slightly lower”. The platelet morphology entry in data set [2] (LG 0.05 mM) is “induced platelet shape change and filopodia formation”; in data set [2] (LG 0.75 mM) it was “membrane structure was strongly modified with a grainy appearance and apparent pores formation”. Also, the “exposure of PS on the platelet surface (annexin V binding)” value with phosphatidylserine (PS) is given as “significant exposure”. The “p38 MAPK phosphorylation” value in the data set on p38 MAPK (LG 0.05 mM) is recorded as “rapid activation”. The “p38 MAPK activation” value in the data set with p38 MAPK (LG 0.75 mM) is listed as “at later times”. In addition, the Src-kinase cleavage result with Src kinases (LG 0.75 mM, substantial at 10 min) was “induced a cleavage of Src-kinase”; in the data set on Src kinases (low dose of LG (0.05 mM)), “no impact”. The “anti-proliferative and pro-apoptotic activity” value with tumoral cell lines was “anti-proliferative and pro-apoptotic activity”. Further, the “activation of αIIbβ3, lower than that induced by 50 μM TRAP” value in the data set on αIIbβ3 integrin (LG 0.05 mM versus 50 μM TRAP) was found to be 50%. Also, the “expression of the active form of the fibrinogen receptor αIIbβ3” value with αIIbβ3 integrin (particularly at 0.05 mM) is listed as “significant increase”. Besides, the antifungal activity result in the data set on fungi was “does not have antifungal activity”. Besides, the “LDH release from platelets” value in data set [3] is reported as “no significant LDH release”. Moreover, the maximal platelet aggregation with washed human platelets [1] (LG 0.05 mM alone, washed human platelets, fast and stable) is on record as around 80%; in the data set with washed human platelets [1] (high concentrations of LG (0.75 mM), slow response) it was around 50%. Further, the “shape of dose-response of platelet aggregation” value in the data set on washed human platelets [1] (increasing concentrations, first peak 0.05 mM, decrease until 0.2 mM, plateau 0.75 to 1 mM) is reported as “non-monotonic dose-response”. The antiviral activity result in the data set on animal viruses is “potent antiviral activity”. For the same compound, the “efficiency on bleeding time compared with tranexamic acid” value with Wistar rats (LG 50 mg/ml versus tranexamic acid 100 mg/ml in ethanol) was “significantly more efficient”. The tail bleeding time result in the data set on Wistar rats (tail dipped 5 seconds, 50 mg/ml LG in ethanol) is “dramatically reduced”. For the same compound, in the data set with human whole blood (collagen matrix, arterial shear rate), the “surface covered by platelets” value was “significantly increased”. Further, the “thrombus volumes compared to control” value in the data set on human whole blood (collagen-coated microcapillaries, shear rate 1500 s^−1) was “significantly increased”. Also, the “time to capillary occlusion” value in the data set on human whole blood (in several experiments, recording 300 s) is listed as below 300 s. Besides, the antibacterial activity entry in [4] is “antibacterial activity”. The “cytoplasmic free calcium concentration” value in the data set on washed human platelets [5] (LG 0.05 mM, after 2.5 min) was found to be 230 ± 25 nM. Moreover, the free cytosolic calcium with washed human platelets [5] (LG 0.75 mM, at 0.5 min) worked out at 105 ± 15 nM. Moreover, in the data set with Akt (LG 0.05 mM), the Akt phosphorylation entry is reported as “rapid activation”. For the same compound, the Akt activation entry in the data set on Akt (LG 0.75 mM) is “at later times”.

As to `CCCOC(=O)c1cc(O)c(O)c(O)c1` [propyl gallate], the platelet aggregation entry in the data set on platelets was “induce platelet aggregation”.
